According to patent US10952432B2, “Cannabidiol compositions and uses thereof” (PHARMOTECH SA, priority 2016, dated 2021):

Legend:
[1] = molecular target: CB2 receptors (Homo sapiens, UniProt P34972); settings: compared with THC; cited from earlier work
[2] = test system: Pseudomonas aeruginosa ATCC 27853; assay: Biofilm formation, crystal violet staining; format: cell-based
Experimental: Overnight pre-cultures of Pseudomonas aeruginosa ATCC 27853 strain were diluted to an OD600 (optical density measured at a wavelength of 600 nm) of 0.1 in 2 ml of LB (lysogeny broth) medium into polypropylene tubes. […] Planktonic cells were removed by washing once with distilled water and biofilms were stained with crystal violet (CV, 1% in water) for 30 minutes. CV was discarded and tubes were rinsed twice with water to remove excess of dye. The stained biofilms were re-suspended in 33% acetic acid and their density was evaluated by measuring the OD600 of the suspensions normalized for bacterial density.

[3] = test system: methicillin-resistant Staphylococcus aureus (MRSA) strains; settings: Appendino et al., 2008; cited from earlier work
[4] = test system: elastase produced by P. aeruginosa PAOW1(PT5); assay: Elastase production measured by Elastin Congo Red enzymatic activity; format: cell-based, Pseudomonas aeruginosa; settings: CBD 500 μg/ml, overnight culture of wt strain, absorption at 495 nm normalized to cell density
Experimental: Elastase production was measured in two bacterial strains: Pseudomonas aeruginosa PAOW1(PT5) that is a wild type (wt) and Pseudomonas aeruginosa ΔlasIΔrhlI that is a mutant for quorum sensing signaling that has reduced production/expression of elastase due to the inhibition of the quorum sensing system. […] Insoluble ECR was removed by centrifugation and the absorption of the supernatant was measured at 495 nm and normalized according to cell density.

Sequence of CB2 receptors (P34972 whole entry): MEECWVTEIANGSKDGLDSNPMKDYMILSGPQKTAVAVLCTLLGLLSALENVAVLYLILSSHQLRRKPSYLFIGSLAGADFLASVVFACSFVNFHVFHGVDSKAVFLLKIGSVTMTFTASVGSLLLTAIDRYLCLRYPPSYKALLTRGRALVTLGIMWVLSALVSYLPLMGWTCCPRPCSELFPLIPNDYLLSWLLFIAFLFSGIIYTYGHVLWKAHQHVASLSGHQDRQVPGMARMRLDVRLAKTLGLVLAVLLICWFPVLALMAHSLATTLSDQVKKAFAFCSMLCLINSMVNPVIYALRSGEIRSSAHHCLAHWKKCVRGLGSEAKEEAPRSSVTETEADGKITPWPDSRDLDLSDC

SMILES	affinity for CB2 receptors [1]	reduction of biofilm formation by a factor, as compared to control without CBD ([2]; CBD 1.9 μg/ml to 31.25 μg/ml, 12 h at 37° C., LB medium, OD600 normalized for bacterial density)	inhibitory effect on biofilm formation at higher concentration ([2]; higher concentration of CBD (62.5 and 125 μg/ml tested), probably due to reduced solubility in culture medium)	activity against a variety of MRSA strains [3]	reduction of the production of elastase as compared to control [4]
C=C(C)[C@@H]1CCC(C)=C[C@H]1c1c(O)cc(CCCCC)cc1O [CBD, 2-[(1R,6R)-6-isopropenyl-3-methylcyclohex-2-en-1-yl]-5-pentylbenzene-1,3-diol]	very low affinity	about 2	inhibitory effect on biofilm formation is reduced	having activity	about 30%
C=C(C)[C@@H]1CCC(C)=C[C@H]1c1c(O)cc(O)cc1CCCCC [abn-CBD, reference compound]	–	–	–	having activity	–
